Source: patent publication US9428564B2, “Muscle function enhancing peptide” (Universitatsklinikum Heidelberg, priority 2009, dated 2016)
“Also recorded” adds a separate entry of the source. Where two headings read alike, the source gives them in different places. Where a SMILES comes first, the peptide text is derived from it. Where no end group is shown, it is not given here.

Tests used:
[1] = system: isolated rat ventricular cardiomyocytes; type: cell-based; details: for effect on calcium transient amplitudes: field-stimulated (1 Hz) isolated rat ventricular cardiomyocytes, FIG. 25; for inotropic effect (calcium transients): basal conditions, intact field-stimulated cardiomyocytes; for inotropic effect (calcium transients) under βAR stimulation: β-AR stimulated, 10^−9 M Isoproterenol
[2] = system: intact rat ventricular cardiomyocytes; type: cell-based; details: not told
Text: Equivalent bioactivity of native human S100A1 protein and the 20-mer C-terminal peptide was shown by the inventors in chemically permeabilized cardiac and skeletal muscle cell preparations enabling intracellular access and regulation of RyR2 and RyR1 function. FIG. 4 depicts a similar intracellular binding pattern for rhodamine-labeled recombinant human S100A1 protein (10415 Mw) (FIG. 4A/B) and the 20-mer FITC-labeled synthetic S100A1 C-terminal peptide (2258 Mw) (FIG. 4C/D).
S100A1ct6/11 refers to the peptide D-K-D-D-P-P-Y-V-V-L-V-A-A-L-T-V-A (SEQ ID NO: 372), wherein the sequence D-K-D-D-P-P (SEQ ID NO: 354) is a hydrophilic motif and the sequence Y-V-V-L-V-A-A-L-T-V-A (SEQ ID NO: 390) are amino acids 75 to 85 of the human S100A1 protein.
FITC-labeled S100A1ct6/11 was incubated with intact rat ventricular cardiomyocytes for 15 minutes before the cells were monitored using confocal laser scanning microscopy. Endogenous S100A1 protein was stained using a conventional immunofluorescence protocol.

[3] = system: permeabilized cardiomyocytes; test: Ca2+-spark frequency in β-escin permeabilized cardiomyocytes; type: cell-based, rabbit
Experimental: Adult ventricular rabbit cardiomyocytes were isolated from four different animals as previously described (Loughrey C. M. et al., 2004, J. Physiol. 556:919-934) and permeabilized using β-escin (0.1 mg/ml). The permeabilized cells were incubated for 1 minute with rhodamine-labeled human S100A1 protein (0.1 μM) or FITC-labeled S100A1 C-terminal 20-mer peptide (0.1 μM) fused to a hydrophilic linker (amino acids 75 to 94 of human S100A1 fused to D-K-D-D-P-P (SEQ ID NO: 354)). Cells were monitored using a Bio-Rad 2000 laser scanning confocal microscope (LSCM). A striated staining pattern can be observed that resembles the ryanodine staining pattern (FIG. 4).
Isolated cardiomyocytes were perfused with a mock intracellular solution and permeabilized using β-escin (0.1 mg/ml). Fluo-3 free acid (10 μM) present in the perfusing solution was excited at 488 nm (Kr-laser) and measured at >515 nm applying epifluorescence optics of an inverted microscope with a ×60-1.2 NA water-immersion objective lens. Fluorescence was acquired in line scan mode at 2 ms line^−1; pixel dimension was 0.3 μm (512 pixels scan^−1; zoom=1.4). The scanning laser line orientated parallel with the long axis and placed approximately equidistant between the outer edge of the cell and the nucleus/nuclei, to ensure the nuclear area was not included in the scan line. To enable this trace to be converted to free calcium concentration ([Ca^2+]) a series of calibration solutions were used at the end of each Ca^2+-spark measurement period incorporating 10 mM EGTA. In all experiments concerning Ca^2+-sparks, the [Ca^2+] in the test solution was 145-160 nM. Ca^2+-sparks recorded in Fluo-3-containing solutions were quantified using an automated detection and measurement algorithm. All Ca^2+-spark measurements were made within 7-8 min of cell permeabilization. This time was standardized to minimize loss of soluble proteins. S100A1 protein or S100A1-ct peptide was applied in mock solution using a gravity-fed perfusion system. […]

[4] = system: adult intact cardiomyocytes; test: Calcium homeostasis in adult intact cardiomyocytes; type: cell-based
[5] = system: skeletal muscle fibers; test: Calcium homeostasis in intact skeletal muscle fibers; type: cell-based
[6] = system: permeabilized EDL murine skeletal muscle fibers; test: Isometric twitch force in permeabilized skeletal muscle fibers; type: cell-based, mouse
Experimental: Muscle Fiber Preparation and Experimental Solutions. All of the animals were handled according to the guidelines of the animal care committee of the University of Heidelberg. Male BALB/c mice (3-6-months-old) were sacrificed by an overdose of carbon dioxide, and muscle fiber preparation was carried out as previously described (Fink R. H. and Stephenson D. G., 1987, Pflugers Arch. Eur. J. Physiol. 409:374-380; Makabe M. et al., 1996, Pflugers Arch. Eur. J. Physiol. 432: 717-726). Either EDL (M. ext. dig. longum) or Soleus was isolated, and a small fiber bundle containing two to four single fibers (between 80 and 150 μm in diameter and 3-4-mm-long) was dissected in paraffin oil. […] The free ion concentrations were calculated with the computer program REACT (version 2.0) from G. L. Smith (Glasgow, Scotland). […]
Muscle fibers were skinned for 5 min in skinning solution while the sarcomere length was adjusted to 2.6±0.1 μm using the diffraction pattern of a helium-neon laser. […] Maximum force was measured in the high activating solution at pCa 4.28 and 5 mM caffeine. […] Several control transients were recorded before the fiber was exposed to the S100A1 protein or the S100A1 peptide mixture (N/H/C) or the C-terminal 20-mer alone, and the experiment was repeated as outlined above. […] The correlation coefficients were calculated to determine the accuracy of the fit. […]

N-78-85-C: amino acids 78 to 85 of human S100A1 protein set forth in SEQ ID NO: 1 (LVAALTVA; listed as Homo sapiens)
effect on calcium transient amplitudes [1]: abolishes the inotropic effect

CC(C)C[C@H](NC(=O)[C@H](C)NC(=O)[C@H](C)NC(=O)[C@@H](NC(=O)[C@H](CC(C)C)NC(=O)[C@@H](NC(=O)[C@@H](NC(=O)[C@H](Cc1ccc(O)cc1)NC(=O)[C@@H]1CCCN1C(=O)[C@@H]1CCCN1C(=O)[C@H](CC(=O)O)NC(=O)[C@H](CC(=O)O)NC(=O)[C@H](CCCCN)NC(=O)[C@@H](N)CC(=O)O)C(C)C)C(C)C)C(C)C)C(=O)N[C@H](C(=O)N[C@H](C(=O)N[C@@H](C)C(=O)O)C(C)C)[C@@H](C)O [S100A1ct6/11, D-K-D-D-P-P-Y-V-V-L-V-A-A-L-T-V-A] (H-DKDDPPYVVLVAALTVA-OH; N-terminus and C-terminus assumed)
EC50 [1]: 87 ± 6 nM | ability to permeate the cell membrane of intact cardiomyocytes [2]: cell permeable

N-79-85-C: amino acids 79 to 85 of human S100A1 protein set forth in SEQ ID NO: 1 (VAALTVA; listed as Homo sapiens)
effect on calcium transient amplitudes [1]: abolishes the inotropic effect

DKDDPP-YCVFLSCIAMM (DKDDPPYCVFLSCIAMM; amino acids 75 to 85 of S100A4 fused to a hydrophilic motif) [amino acids 75-85 of S100A4 fused to a hydrophilic motif, reference compound]
inotropic effect (calcium transients) [1]: fail to reproduce S100A1ct6/11 inotropic actions | inotropic effect (calcium transients) under βAR stimulation [1]: neither S100A4ct nor S100Bct mimic S100A1ct6/11 inotropic effects

CC(C)C[C@H](NC(=O)[C@H](C)NC(=O)[C@H](C)NC(=O)[C@@H](NC(=O)[C@H](CC(C)C)NC(=O)[C@@H](NC(=O)[C@@H](NC(=O)[C@@H](N)Cc1ccc(O)cc1)C(C)C)C(C)C)C(C)C)C(=O)N[C@H](C(=O)N[C@H](C(=O)N[C@@H](C)C(=O)N[C@@H](CS)C(=O)N[C@@H](CC(N)=O)C(=O)N[C@@H](CC(N)=O)C(=O)N[C@@H](Cc1ccccc1)C(=O)N[C@@H](Cc1ccccc1)C(=O)N[C@@H](Cc1c[nH]c2ccccc12)C(=O)N[C@@H](CCC(=O)O)C(=O)N[C@@H](CC(N)=O)C(=O)N[C@@H](CO)C(=O)O)C(C)C)[C@@H](C)O [20-mer S100A1 C-terminal peptide, YVVLVAALTVACNNFFWENS, reference compound] (H-YVVLVAALTVACNNFFWENS-OH; N-terminus and C-terminus assumed)
ability to permeate the cell membrane of intact cardiomyocytes [2]: cell-impermeable

D-K-D-D-P-P-V-V-L-V-A-A-L-T-V-A (DKDDPPVVLVAALTVA; amino acids 76 to 85 of human S100A1 fused to a hydrophilic motif) [N-76-85-C, amino acids 76 to 85 of human S100A1 fused to a hydrophilic linker (D-K-D-D-P-P)]
effect on calcium transient amplitudes ([1]; listed as peptide consisting of amino acids 76 to 85 of human S100A1 fused to a hydrophili): exerts the same inotropic function as the S100A1ct6/11 peptide

S100A1 C-terminal 20-mer peptide fused to a hydrophilic linker: amino acids 75 to 94 of human S100A1 fused to D-K-D-D-P-P (SEQ ID NO: 354) (YVVLVAALTVACNNFFWENS; also: fused to hydrophilic linker D-K-D-D-P-P, end not given here; UniProt P23297 75-94, looked up, fragment) [reference compound]
diastolic calcium spark frequency [3]: decrease calcium spark frequency

N-77-85-C: amino acids 77 to 85 of human S100A1 protein set forth in SEQ ID NO: 1 (VLVAALTVA; listed as Homo sapiens)
effect on calcium transient amplitudes [1]: abolishes the inotropic effect

D-K-D-D-P-P (DKDDPP; hydrophilic motif) [linker, reference compound]
effect on calcium transient amplitudes [1]: do not exhibit the inotropic effect

DKDDPP-FMAFVAMVTTA (DKDDPPFMAFVAMVTTA; amino acids 75 to 85 of S100B fused to a hydrophilic motif) [amino acids 75-85 of S100B fused to a hydrophilic motif, reference compound]
inotropic effect (calcium transients) [1]: fail to reproduce S100A1ct6/11 inotropic actions | inotropic effect (calcium transients) under βAR stimulation [1]: neither S100A4ct nor S100Bct mimic S100A1ct6/11 inotropic effects

B1: S100A1 protein: native human S100A1 protein, 94 amino acids, SEQ ID NO: 1 (protein, listed as Homo sapiens)
chain: MGSELETAMETLINVFHAHSGKEGDKYKLSKKELKELLQTELSGFLDAQKDVDAVDKVMKELDENGDGEVDFQEYVVLVAALTVACNNFFWENS
calcium homeostasis [4]: does not alter | calcium homeostasis [5]: does not alter | isometric twitch force [6]: enhances; also recorded: equivalent biological potency to enhance isometric force | isometric twitch force ([6]; listed as full-length S100A1 protein): has a potency to enhance isometric twitch force | RyR2 activity [3]: decreases | diastolic calcium spark frequency [3]: decrease calcium spark frequency; also recorded: decreases
